Measurements taken from US20160083424A1, “COMPOSITIONS AND METHODS FOR TARGETING ANTIGEN-PRESENTING CELLS” (OSLO UNIVERSITETSSYKEHUS HF, priority 2013, published 2016).

Legend:
Type in all cases: cell-based, human
[1] = system: PBMCs; test: Targeted vs spontaneous uptake of pp65 peptides at 37° C., dextramer staining; settings: PBMCs incubated at 37° C., 12 days, relative to untargeted peptide, particularly at lower peptide concentrations
Description: (§1) PBMC from HLA-A2/CMV+ donors were thawed, washed and then incubated with the peptides (5 μg/ml) for 60 min at 4° C. Subsequently, the cells were washed twice and then plated at 2×10^5 cells per well in 96-well tissue culture plate. Cells were cultured for 5 days and subsequently they were pulsed with [^3H] thymidine and harvested 16 h later. In some experiments, the cells were cultured for 12 days and then stained with dextramers specific for pp65 NLVPMVATV (SEQ ID NO:19) epitope. Monocyte-depleted PBMCs were also used. To analyze primary immune responses against pp65 protein, PBMCs from HLA-A2+/CMV-negative donors were used. Autologous DCs were incubated with either NW-pp65 or GA-pp65 peptide (5 μg/ml) at 4° C. for 1 h, followed by three washes to remove unbound peptides. Subsequently, the cells were incubated with CD45RO-depleted PBMC (responder cells) and co-cultured for 10 days at ratio 1/10 (DC to responder cells) in X-vivo 15 medium supplemented with 10 ng/ml human IL-7 for 10 days. After 2 rounds of stimulation (8 days each) with autologous DC loaded with peptides, the cells were stained with dextramers specific for pp65 NLVPMVATV (SEQ ID NO:19) epitope. To test spontaneous uptake of peptides by DCs, PBMCs from HLA-A2+/CMV positive donors were incubated at 37° C. with various concentrations of untargeted or targeted pp65 peptide for 90 min. […]

[2] = system: CD8 T cells specific for the NLVPMVATV epitope; test: Dextramer staining of CD8 T cells after stimulation with peptide-exposed DCs; settings: DC-stimulated CD8 T cells, CMV positive donors, equal molar concentrations, n=3
Description: (§2) Peptides at a concentration of 5 μg/ml were incubated with semi mDCs from HLA-A2/CMV-positive donors for 60 min at 4° C. Subsequently, they were washed to remove unbound peptides. Autologous stimulation was done in 96-well tissue culture plates in X-vivo 15 medium. Briefly, DCs were mixed with 10^5 autologous CD4 or CD8 T cells at a DC/lymphocytes ratios of 1/5 and 1/10 in a final volume of 250 μl. Cells were incubated for 5 days and then they were pulsed with [^3H] thymidine and harvested 16 h later. [^3H] thymidine incorporation was measured in a β-scintillation counter. In some experiments, the cells were cultured for 8 days and then stained with dextramers specific for pp65 NLVPMVATV (SEQ ID NO:19) epitope.
(§3) Dextramers with CMV (NLVPMVATV) (SEQ ID NO:19) and HIV (ILKEPVHGV) (SEQ ID NO:22) HLA-A2 specific antigens were obtained from Immudex (Copenhagen, Denmark). Antibodies against human CD8, CD19 and CD56 were obtained from eBioscience (San Diego, Calif., USA). […] Cells were washed and resuspended in SB containing 1% paraformaldehyd and analyzed on a BD SLR II flow cytometer. The data were analyzed using FCS Express (De Novo Software, Los Angeles, Calif., USA).

[3] = system: PBMCs; test: Autologous stimulation of PBMCs with pp65 targeted peptides, [3H] thymidine incorporation; settings: whole PBMCs, peptides at 4° C., 5 days at 37° C.
Description: as §1

[4] = system: pp65-specific naïve T cells; test: Induction of CMV-pp65-specific T cells from naive donor repertoire, dextramer staining; settings: CD45RO-depleted PBMCs, HLA-A2+/CMV negative donors, IL-7, representative example
Description: as §1, with “days.” for “days. After 2 rounds of stimulation (8 days each) with autologous DC loaded with peptides, the cells were stained with dextramers specific for pp65 NLVPMVATV (SEQ ID NO:19) epitope. To test spontaneous uptake of peptides by DCs, PBMCs from HLA-A2+/CMV positive donors were incubated at 37° C. with various concentrations of untargeted or targeted pp65 peptide for 90 min.”
as §3, with “Denmark).” for “Denmark). Antibodies against human CD8, CD19 and CD56 were obtained from eBioscience (San Diego, Calif., USA).”, “USA). […]” for “USA).”

[5] = system: CD8 T cells against NLVPMVATV epitope; test: Dextramer staining of CD8 T cells after PBMC stimulation with pp65 peptides
Description: PBMC from HLA-A2/CMV+ donors were thawed, washed and then incubated with the peptides (5 μg/ml) for 60 min at 4° C. Subsequently, the cells were washed twice and then plated at 2×10^5 cells per well in 96-well tissue culture plate. Cells were cultured for 5 days and subsequently they were pulsed with [^3H] thymidine and harvested 16 h later. In some experiments, the cells were cultured for 12 days and then stained with dextramers specific for pp65 NLVPMVATV (SEQ ID NO:19) epitope. Monocyte-depleted PBMCs were also used. To analyze primary immune responses against pp65 protein, PBMCs from HLA-A2+/CMV-negative donors were used. Autologous DCs were incubated with either NW-pp65 or GA-pp65 peptide (5 μg/ml) at 4° C. for 1 h, followed by three washes to remove unbound peptides. Subsequently, the cells were incubated with CD45RO-depleted PBMC (responder cells) and co-cultured for 10 days at ratio 1/10 (DC to responder cells) in X-vivo 15 medium supplemented with 10 ng/ml human IL-7 for 10 days. After 2 rounds of stimulation (8 days each) with autologous DC loaded with peptides, the cells were stained with dextramers specific for pp65 NLVPMVATV (SEQ ID NO:19) epitope. To test spontaneous uptake of peptides by DCs, PBMCs from HLA-A2+/CMV positive donors were incubated at 37° C. with various concentrations of untargeted or targeted pp65 peptide for 90 min. Subsequently, the cells were washed to remove unbound peptides and cultured at 37° C. for 12 days and then stained with dextramers specific for pp65 NLVPMVATV (SEQ ID NO:19) epitope.
Dextramers with CMV (NLVPMVATV) (SEQ ID NO:19) and HIV (ILKEPVHGV) (SEQ ID NO:22) HLA-A2 specific antigens were obtained from Immudex (Copenhagen, Denmark). Antibodies against human CD8, CD19 and CD56 were obtained from eBioscience (San Diego, Calif., USA). Briefly, around 10^6 cells were washed and resuspended in 50 μl staining buffer SB (PBS with 0.1% human serum albumin and 0.1% NaN3) containing 1 mg/ml aggregated α-globulin and then stained with dextramer for 10 min in the dark at room temperature. Subsequently, antibodies against CD8, CD19 and CD56 were added and incubation continued for additional 20 min. Cells were washed and resuspended in SB containing 1% paraformaldehyd and analyzed on a BD SLR II flow cytometer. The data were analyzed using FCS Express (De Novo Software, Los Angeles, Calif., USA).
Monocytes have the capacity to differentiate into macrophages or inflammatory DCs in-vitro and in-vivo (Auffray et al., (2009) Annu Rev. Immunol. 27, 669-92). Given that the NW peptide bound to blood monocytes, it was investigated whether this binding affects T-cell activation. Therefore, proliferation assays were performed with whole PBMCs. […]

[6] = system: autologous CD4 or CD8 T cells; test: Autologous stimulation of T lymphocytes by DCs exposed to targeted pp65 peptides, [3H] thymidine incorporation; settings: semi mDCs loaded at 4° C., HLA-A2+/CMV positive donors, 5 days
Description: as §2
The capacity of the NW-pp65 fusion peptide (60-mer) to activate T cells from HLA-A2+/CMV positive donors was evaluated. It should be noted that the 48-mer pp65 peptide contains both MHC class I (e.g. NLVPMVATV) (SEQ ID NO:19) and class II (e.g. AGILARNLVPMVATV (SEQ ID NO:23), FFWDANDIYRI (SEQ ID NO:24)) epitopes, allowing the detection of CD4 and CD8 T-cell responses (24-26). […] All cultures were incubated at 37° C. for 5 days and T-cell activation was determined by measuring their proliferation potential (FIG. 6A). […]

NWYLPWLGTNDWGCFTWPPWQAGILARNLVPMVATVQGQNLKYQEFFWDANDIYRIFAEL [NW-60-mer, 48-mer CMV pp65 peptide fused to NW peptide]
expansion of CD8 T cells after uptake at 37° C. [1]: significant expansion of CD8 T cells | dextramer-positive CD8 T cells specific for NLVPMVATV [2]: 10.50% | T-cell proliferation ([3H]-thymidine) [3]: stimulated T-cell proliferation | pp65-specific naïve T cells (dextramer staining) [4]: 0.22% | CTL response (dextramer staining) ([5]; monocyte-depleted PBMCs): 5.60% | CTL response (dextramer staining) ([5]; whole PBMCs, n=3): 8.85% | T-cell activation (proliferation, [3H]-thymidine) [6]: activated both CD8 and CD4 T cells
